Assay results taken from EPA's ToxValDB 9.5.

Columns and labels:
Mus musculus = conditions: B6C3F1; for LOAEL: M/F
Rattus norvegicus [1] = system: Rattus norvegicus
Rattus norvegicus [2] = conditions: M/F
Rattus norvegicus [3] = conditions: oral; for NOEL: gavage
Rattus norvegicus [4] = system: Rattus norvegicus; remark: listed apart in the source
Oryctolagus sp. = conditions: for LD50: acute; for LOAEL: Dutch-belted
Rattus norvegicus [5] = conditions: uterotrophic; duration: 3 days; oral; Active
[6] = subchronic, oral, gavage, epithelial hyperplasia of the forestomach
[7] = acute, oral, gavage, Sprague-Dawley
[8] = subchronic, duration: 13 weeks, oral, gavage, Sprague-Dawley
[9] = short-term, duration: 14 days, oral, gavage, F, Fischer 344
[10] = short-term, duration: 14 days, oral, gavage, M, Fischer 344
[11] = subchronic, duration: 13 weeks, inhalation, F, Fischer 344
[12] = subchronic, duration: 13 weeks, inhalation, Fischer 344
[13] = subchronic, duration: 13 weeks, oral, gavage, F, Fischer 344
[14] = subchronic, duration: 13 weeks, oral, gavage, Fischer 344
[15] = reproduction developmental, oral, gavage, Sprague-Dawley, generation: F1

Question: Which NOAEL (Mus musculus; subchronic, duration: 13 weeks, oral, diet, F, renal) does the source give for `ClC(Cl)=C(Cl)C(Cl)=C(Cl)Cl` [Hexachloro-1,3-butadiene] here?
Answer: Its NOAEL is 0.2 mg/kg-day.

Question: What about the LOAEL (Rattus norvegicus [1]; short-term, duration: 14 days, oral, diet, M/F, Wistar, renal) of the same molecule?
Answer: The LOAEL was 5.9 mg/kg-day.

Question: Which LOAEL (Mus musculus; subchronic, duration: 13 weeks, inhalation, neurological) does the source give for `CBr` [Methyl bromide] here?
Answer: The LOAEL was 38.8 mg/m3.

Question: And the LOAEL (Rattus norvegicus [1]; chronic, duration: 129 weeks, inhalation, M/F, Wistar, respiratory)?
Answer: The LOAEL was 12 mg/m3.

Question: And the LOAEL (Rattus norvegicus [2]; chronic, duration: 29 months, inhalation, degenerative and proliferative lesions of the olfactory epithelium of the nasal cavity)?
Answer: The LOAEL was 11.7 mg/m3.

Question: What about the LOAEL (Rattus norvegicus [2]; [6]) of the same molecule?
Answer: Its LOAEL is 7.1 mg/kg-day.

Question: And the NOAEL (Rattus norvegicus [2]; [6])?
Answer: The NOAEL was 1.4 mg/kg-day.

Question: `ClC1C(Cl)C(Cl)C(Cl)C(Cl)C1Cl` (stereo not drawn) [alpha-1,2,3,4,5,6-Hexachlorocyclohexane] was tested. Which NOAEL (Rattus norvegicus [1]; chronic, duration: 107 weeks, oral, diet, M/F, Wistar, hepatic) did it give?
Answer: Its NOAEL is 0.9 mg/kg-day.

Question: What about the NOAEL (Rattus norvegicus [1]; short-term, duration: 28 days, oral, gavage, M, Fischer 344, hepatic) of the same molecule?
Answer: Its NOAEL is 2 mg/kg-day.

Question: For `Cc1cccc2ccccc12` [1-Methylnaphthalene], which NOEL (Rattus norvegicus [3]; subchronic, M, Sprague-Dawley, Absolute Organ Weight: Liver increase + Relative Organ Weight: Liver increase) is on record?
Answer: The NOEL was 50 mg/kg-day.

Question: And the LOAEL (Mus musculus; chronic, duration: 81 weeks, oral, respiratory)?
Answer: Its LOAEL is 71.6 mg/kg-day.

Question: For `CN1C(=O)c2ccc([N+](=O)[O-])cc2C1=O` [N-Methyl-4-nitrophthalimide], which LD50 (Rattus norvegicus [4]; acute, inhalation, whole body, Sprague-Dawley) is on record?
Answer: Its LD50 is greater than 36 mg/L.

Question: And the LD50 (Rattus norvegicus [4]; [7])?
Answer: The LD50 was 2800 mg/kg.

Question: What about the NOAEL (Rattus norvegicus [4]; developmental, duration: 9 days, oral, gavage, Sprague-Dawley) of the same molecule?
Answer: The NOAEL was 50 mg/kg-day.

Question: And the NOAEL (Rattus norvegicus [4]; reproduction developmental, duration: 4 weeks, oral, gavage, Sprague-Dawley)?
Answer: The NOAEL was greater than 25 mg/kg-day.

Question: What about the NOAEL (Rattus norvegicus [4]; reproduction developmental, duration: 4 weeks, oral, gavage, Sprague-Dawley, generation: F0) of the same molecule?
Answer: The NOAEL was 2.5 mg/kg-day.

Question: And the NOAEL (Rattus norvegicus [4]; reproduction developmental, duration: 4 weeks, oral, gavage, Sprague-Dawley, generation: F1)?
Answer: Its NOAEL is greater than 25 mg/kg-day.

Question: And the NOAEL (Rattus norvegicus [4]; reproduction developmental, duration: 9 days, oral, gavage, F, Sprague-Dawley)?
Answer: The NOAEL was 10 mg/kg-day.

Question: What about the LOAEL (Rattus norvegicus [4]; [8]) of the same molecule?
Answer: Its LOAEL is 10 mg/kg-day.

Question: And the NOAEL (Rattus norvegicus [4]; [8])?
Answer: The NOAEL was 1 mg/kg-day.

Question: And the LD50 (Oryctolagus sp.; dermal, New Zealand)?
Answer: Its LD50 is greater than 2000 mg/kg.

Question: What about the NOAEL (Oryctolagus sp.; developmental, duration: 13 days, oral, gavage, New Zealand) of the same molecule?
Answer: Its NOAEL is 50 mg/kg-day.

Question: And the NOAEL (Oryctolagus sp.; reproduction developmental, duration: 13 days, oral, gavage, F, New Zealand)?
Answer: The NOAEL was 50 mg/kg-day.

Question: `CCC[CH2][Sn]([Cl])([Cl])[CH2]CCC` [Dibutyltin dichloride] was tested. Which LOAEL (Rattus norvegicus [1]; short-term, duration: 6 weeks, oral, diet, M/F, Wistar, immunological) did it give?
Answer: Its LOAEL is 5 mg/kg-day.

Question: Which results are given for `CCc1ccc(C)cc1` [4-Ethyltoluene]?
Answer: LC50 (Rattus norvegicus [4]; acute, inhalation, Sprague-Dawley): > 19200 mg/m3; LD50 (Rattus norvegicus [4]; [7]): 4850 mg/kg; NOAEL (Rattus norvegicus [4]; developmental, duration: 20 days, oral, gavage): > 200 mg/kg-day; LOAEL (Rattus norvegicus [4]; [9]): 400 mg/kg-day; NOAEL (Rattus norvegicus [4]; [9]): 200 mg/kg-day; LOAEL (Rattus norvegicus [4]; [10]): 400 mg/kg-day; NOAEL (Rattus norvegicus [4]; [10]): 200 mg/kg-day; LOAEL (Rattus norvegicus [4]; [11]): 4810 mg/m3; NOAEL (Rattus norvegicus [4]; [11]): 1500 mg/m3; LOAEL (Rattus norvegicus [4]; [12]): 4810 mg/m3; NOAEL (Rattus norvegicus [4]; [12]): 1500 mg/m3; LOAEL (Rattus norvegicus [4]; [13]): 300 mg/kg-day; NOAEL (Rattus norvegicus [4]; [13]): 100 mg/kg-day; LOAEL (Rattus norvegicus [4]; [14]): 300 mg/kg-day; NOAEL (Rattus norvegicus [4]; [14]): 100 mg/kg-day; LD50 (Oryctolagus sp.; dermal, occlusive, New Zealand): > 5000 mg/kg; LOAEL (Oryctolagus sp.; developmental, oral, gavage): > 200 mg/kg-day; LOAEL (Oryctolagus sp.; reproduction developmental, oral, gavage, F): 250 mg/kg-day

Question: For `CCCCC(CC)CO[N+](=O)[O-]` (configuration not stated) [2-Ethylhexyl nitrate], which NOAEL (Rattus norvegicus [4]; reproduction developmental, oral, gavage, Sprague-Dawley, generation: F0) is on record?
Answer: The NOAEL was 20 mg/kg-day.

Question: And the NOAEL (Rattus norvegicus [4]; [15])?
Answer: The NOAEL was 100 mg/kg-day.

Question: And the NOAEL (Rattus norvegicus [4]; short-term, duration: 14 days, inhalation, Sprague-Dawley)?
Answer: Its NOAEL is 301 mg/m3.

Question: And the NOAEL (Rattus norvegicus [4]; short-term, duration: 28 days, oral, gavage, Sprague-Dawley)?
Answer: The NOAEL was 20 mg/kg-day.

Question: And the NOAEL (Oryctolagus sp.; short-term, duration: 15 days, dermal, semiocclusive, Albino)?
Answer: The NOAEL was greater than 500 mg/kg-day.

Question: What does the source list for `ClCCOCCCl` [Bis(chloroethyl) ether]?
Answer: NOEL (Rattus norvegicus [3]; subchronic, Sprague-Dawley): 15 mg/kg-day; LOAEL (Rattus norvegicus [1]; chronic, duration: 130 days, inhalation, M/F, body weight): 404 mg/m3

Question: Which NOAEL (Rattus norvegicus [3]; subchronic, duration: 90 days, drinking water, M/F, Tif / RAlf, Deaths + Body Weight Changes: Weight gain + Food Consumption: decrease + Water Consumption: decrease + Hematology: RBC decrease, HGB …) does the source give for `Nc1ccc(Cc2ccc(N)cc2)cc1` [4,4'-Diaminobiphenyl methane] here?
Answer: Its NOAEL is less than 12.2 mg/kg-day.

Question: What about the LOAEL (Rattus norvegicus [1]; acute, duration: 1 days, oral, gavage, M, Sprague-Dawley, hepatic) of the same molecule?
Answer: The LOAEL was 25 mg/kg-day.

Question: What about the NOAEL (Rattus norvegicus [1]; subchronic, duration: 12 weeks, oral, gavage, M/F, Wistar, hepatic) of the same molecule?
Answer: The NOAEL was 8.3 mg/kg-day.

Question: For `C1=CC2C3C=CC(C3)C2C1` (configuration not stated) [Dicyclopentadiene], which NOEL (Rattus norvegicus [3]; short-term, duration: 28 days, M/F, Fischer 344, Deaths + Clinical Observation: Salivation + Body Weight Changes: Weight gain decrease + Food Consumption: decrease + Blood Chemistry: GPT …) is on record?
Answer: Its NOEL is 8 mg/kg-day.

Question: What about the NOAEL (Rattus norvegicus [4]; developmental, duration: 10 days, oral, diet, Sprague-Dawley) of the same molecule?
Answer: The NOAEL was 750 ppm.

Question: And the NOAEL (Rattus norvegicus [4]; developmental, duration: 10 days, oral, gavage, Sprague-Dawley)?
Answer: The NOAEL was 50 mg/kg-day.

Question: And the NOAEL (Rattus norvegicus [4]; reproduction developmental, duration: 10 days, oral, diet, F, Sprague-Dawley)?
Answer: The NOAEL was 750 ppm.

Question: And the NOAEL (Rattus norvegicus [4]; reproduction developmental, oral, diet, Sprague-Dawley, generation: F0)?
Answer: The NOAEL was 750 ppm.

Question: And the NOAEL (Rattus norvegicus [4]; reproduction developmental, oral, diet, Sprague-Dawley, generation: F1)?
Answer: Its NOAEL is 750 ppm.

Question: What about the NOAEL (Rattus norvegicus [4]; reproduction developmental, oral, diet, Sprague-Dawley, generation: F2) of the same molecule?
Answer: Its NOAEL is 750 ppm.

Question: What about the NOAEL (Rattus norvegicus [4]; reproduction developmental, oral, gavage, F, Sprague-Dawley) of the same molecule?
Answer: The NOAEL was 20 mg/kg-day.

Question: And the NOAEL (Rattus norvegicus [4]; reproduction developmental, oral, gavage, M, Sprague-Dawley)?
Answer: The NOAEL was 100 mg/kg-day.

Question: And the NOAEL (Rattus norvegicus [4]; [15])?
Answer: The NOAEL was 20 mg/kg-day.

Question: What about the NOAEL (Oryctolagus sp.; reproduction developmental, duration: 14 days, oral, gavage, F, New Zealand) of the same molecule?
Answer: Its NOAEL is 25 mg/kg-day.

Question: For `Cc1ccc(OP(=O)(Oc2ccc(C)cc2C)Oc2ccc(C)cc2C)c(C)c1` [Trixylyl phosphate], which LD50 (Rattus norvegicus [4]; [7]) is on record?
Answer: The LD50 was greater than 20000 mg/kg.

Question: And the LD50 (Oryctolagus sp.; dermal, New Zealand)?
Answer: The LD50 was greater than 2000 mg/kg.

Question: For `CC(C)Oc1ccc2c(=O)c(-c3ccccc3)coc2c1` [Ipriflavone], which NOEL (Rattus norvegicus [3]; subchronic, duration: 35 days, Sprague-Dawley) is on record?
Answer: The NOEL was greater than 3000 mg/kg-day.

Question: What about the LEL (Rattus norvegicus [5]) of the same molecule?
Answer: Its LEL is 200 mg/day.
